Experiments:
[1] = test system: Kasumi-1 cells (c-Kit N822K); experiment: Cell survival in Kasumi-1 cells (Cell Counting Kit-8); type: cell-based, human; details: Homo sapiens, 72 hours
Experimental: Kasumi-1 cells (20,000 cells/well) were cultured in 96-well plates and maintained at 37° C. for several hours. […] 17AAG and DMAG are Hsp90 inhibitors that are currently in clinical trials and are used here as positive controls for Hsp90 inhibition. […] Cell survival was measured with Cell Counting Kit-8 (Dojindo Laboratories, Cat # CK04).

NPM-ALK = experiment: Degradation of NPM-ALK in Karpas-299 cells (Western blot); type: cell-based, human; details: 18 hours
Experimental: Anaplastic large-cell lymphoma cells, Karpas-299 cells (the German resource center for biological material) (2×10^6 cells), which harbor the fusion protein NPM-ALK, were treated (0.05 μM, 0.1 μM and 0.5 μM) with either Compound 226 or 17-AAG. After 18 hours and the cells were lysed with 1× lysis buffer and a western blot was perform using an anti-ALK antibody to detect and phosphorylated NPM-ALK and total NPM-ALK.

phosphorylated Bcr-Abl = experiment: Degradation of Bcr-Abl in KU812 cells (Western blot); type: cell-based; details: 18 hours
Experimental: KU812 chronic myeloid leukemia cells (ATCC) (2×10^6 cells), which harbor the Philadelphia chromosome that produces Bcr-Abl tyrosine kinase, were treated (0.1 μM and 1.0 μM) with either Compound 226, 17-AAG or 17-DMAG. After 18 hours, the cells were lysed with 1× lysis buffer, and a western blot was perform using anti-BCR-ABL antibody to detect phosphorylated Bcr-Abl.

MV 4-11 cells (FLT3-ITD) = experiment: Cell survival in MV-4-11 cells (Cell Counting Kit-8); type: cell-based, human; details: Homo sapiens, MV4-11, 72 hours
Experimental: Human acute myelogenous leukemia (AML) cell line, MV 4-11 (ATCC #CRL-9591), was obtained from the American Type Culture Collection (ATCC; Manassas, Va., USA). Growth of this tumor cell line is dependent upon the expression of an activated form of the FLT3 tyrosine kinase receptor carrying an internal tandem duplication (ITD) mutation, which is the most common molecular defect associated with AML (K. W. Yee et al., Blood 100:2941-2949, 2002). MV 4-11 cells (20,000 cells/well) were cultured in 96-well plates and maintained at 37° C. for several hours. The cells were incubated at 37° C. for 72 hours with various concentrations of compounds of the invention, 17AAG, or DMAG. 17AAG and DMAG are Hsp90 inhibitors that are currently in clinical trials and are used here as positive controls for Hsp90 inhibition. Cell survival was measured with Cell Counting Kit-8 (Dojindo Laboratories, Cat # CK04).

P815 cells (c-Kit D814Y) = experiment: Cell survival in mouse mastacytoma cell line P815 (Cell Counting Kit-8); type: cell-based; details: 72 hours
Experimental: Mouse mastacytoma cell line P815 was obtained from the American Type Culture Collection (ATCC; Manassas, Va., USA). […] P815 cells (20,000 cells/well) were cultured in 96-well plates and maintained at 37° C. for several hours. […] 17AAG and 17DMAG are Hsp90 inhibitors that are currently in clinical trials and are used here as positive controls for Hsp90 inhibition. […] Cell survival was measured with Cell Counting Kit-8 (Dojindo Laboratories, Cat # CK04).

[2] = test system: human tumor cell line Kasumi-1; experiment: Kasumi-1 (c-Kit N822K) SCID mouse xenograft model; type: in vivo, human (xenograft in SCID mouse); details: for % T/C value: SCID mice
Text: The human acute myelogenous leukemia cell line, Kasumi-1 (ATCC #CRL-2724), was obtained from the American Type Culture Collection (ATCC; Manassas, Va., USA). Growth of this tumor cell line is dependent upon the expression of an activated form of the c-Kit tyrosine kinase receptor carrying a N822K mutation (A. Beghini, et al., Exp. Hematol. 33:682-688, 2005). […] FBS was obtained from ATCC and all other reagents were obtained from Invitrogen Corp. (Carlsbad, Calif., USA). Cells that had been cryopreserved in liquid nitrogen were rapidly thawed at 37° C. and transferred to a tissue culture flask containing growth media and then incubated at 37° C. in a 5% CO2 incubator. To expand the cell line, cultures were passaged 1:2 to a density of 5×10 (6) cells/ml every three days by adding an equal volume of fresh growth media. When the flasks reached a density of approximately 10×10 (6) cells/ml, the above passaging process was repeated until sufficient cells had been obtained for implantation into mice.
Seven to eight week old, female CB17/Icr-Prkdc^scid/Crl (SCID) mice were obtained from Charles River Laboratories (Wilmington, Mass., USA). […]
Tumors were then permitted to develop in vivo until the majority reached 100-200 mm^3 in tumor volume, which typically required 4-5 weeks following implantation. […] Tumor volumes (V) were calculated by caliper measurement of the width (W), length (L) and thickness (T) of tumors using the following formula: V=0.5236×(L×W×T). Animals were randomized into treatment groups so that the median tumor volumes of each group were similar at the start of dosing. % T/C values, as a measure of efficacy, were determined as follows: • (vi) If ΔT>0: % T/C=(ΔT/ΔC)×100 • (vii) If ΔT<0: % T/C=(ΔT/T0)×100 • (viii) ΔT=Change in median tumor volume between start of dosing and the end of study. • (ix) ΔC=Change in median tumor volume between start of dosing and the end of study. • (x) T0=Median tumor volume at start of dosing. […]

## CC(C)c1cc(-c2nnc(O)n2-c2ccc3c(ccn3C)c2)c(O)cc1O [Compound 226, 3-(2,4-di-hydroxy-5-isopropyl-phenyl)-4-(1-methyl-indol-5-yl)-5-hydroxy-[1,2,4] triazole]
[1]
  IC50: 4 nM
NPM-ALK; 0.05 μM and 0.1 μM
  degradation of phosphorylated and total NPM-ALK: partial degradation
NPM-ALK; 0.5 μM
  degradation of phosphorylated NPM-ALK: total degradation
Phosphorylated Bcr-Abl; 0.1 μM
  degradation of phosphorylated Bcr-Abl: complete degradation
Phosphorylated Bcr-Abl; 1.0 μM
  degradation of phosphorylated Bcr-Abl: complete degradation
MV 4-11 cells (FLT3-ITD)
  IC50: < 4 nM
P815 cells (c-Kit D814Y)
  IC50 for cell survival (comparison): lower IC50 for cell survival than 17AAG, 17DMAG or Gleevec
[2]; 25 mg/kg i.v. 5 times per week, day 50
  average bodyweight gain relative to the start of the study: +0.7% (+/−2.0 SEM)
[2]; 25 mg/kg i.v. 5 times per week, 14 doses, day 50
  % T/C value: −15.3%
[2]; single dose of 25 mg/kg on day 30, observed day 33 (3 days after the first dose)
  % T/C value: −4.1%

Source: patent publication US20080004266A1, “Method for treating proliferative disorders associated with protooncogene products” (priority 2006, published 2008)
